Test results taken from patent US8957190B2, “Use of heat-resistant biotin-binding protein, and solid support having the protein attached thereto” (Japan Tobacco Inc., priority 2006, dated 2015).

Key:
[1] = background art; cited from earlier work
salmon sperm DNA = assay: Test for non-specific binding to DNA (slot blot, antibody detection); settings: 25 μg/mL protein, salmon sperm DNA 10 μg to 0.3 μg on membrane
Procedure: TM2 was analyzed for its non-specific binding to DNA. Serial dilutions of salmon sperm DNA (10 μg to 0.3 μg) in 2×SSC buffer were alkali-denatured and adsorbed onto a Hybond N+ membrane (Amersham Biosciences) using Bio-Dot SF (BIO-RAD). The membrane was blocked with 5×Denhardt's solution (0.1% BSA, 0.1% Ficoll, 0, 1% polyvinylpyrrolidone) and then immersed in a 25 μg/mL TM2, streptavidin or avidin solution at room temperature for 90 minutes. The membrane was then washed three times with TTBS buffer (TBS buffer containing 0.05% Tween 20) at room temperature for 5 minutes. The membrane was blocked with TBS buffer containing 0.5% skimmed milk and 0.01% Tween 20 for 1 hour. The primary antibodies used were rabbit anti-TM2 antibody (purified as described above) for TM2, rabbit anti-streptavidin antibody (SIGMA) for streptavidin, and rabbit anti-avidin antibody (Abcam) for avidin, which were diluted to give the same antibody titer before use. Antigen-antibody reaction with each primary antibody was performed overnight at room temperature. […] The membrane was washed three times with TTBS buffer at room temperature for 5 minutes, and then developed with an Alkaline Phosphatase substrate kit II, vector Black (Funakoshi Co., Ltd., Japan), followed by quantification with a Las-3000 system (FUJIFILM).

[2] = Kinetic analysis of tamavidin 2-biotin interaction using a Biacore 3000 biosensor (surface plasmon resonance); type: binding; settings: Biacore 3000, 25° C.
Procedure: Kinetic Analysis of Tamavidin 2 (TM2)-Biotin Interaction Using a Biacore Biosensor
Highly-purified BSA (2 mg, Sigma) and NHS-biotin (1 mg, Pierce) were dissolved in 1 ml of 50 mM sodium borate pH 8.0 and incubated at 4° C. for 2 hours. The NHS-biotin (EZ-Link NHS-LC-LC-Biotin) had been dissolved in a small volume of DMSO before addition. This solution was introduced into a dialysis tube (MWCO 6-8,000) and dialyzed overnight at 4° C. against 50 mM sodium carbonate pH 6.7. The biotin-BSA conjugate thus prepared (MW 67 kDa, 30 μM) was used as a ligand (a substance immobilized on a sensor chip) for a Biacore® biosensor. On the other hand, recombinant tamavidin 2 was prepared as an analyte (a substance flowing through channels) and analyzed for intermolecular interactions using a Biacore® 3000 (a biosensor designed on the principle of surface plasmon resonance, Biacore Inc.). Biotin-BSA and BSA alone (serving as a negative control) were each immobilized on CM5 sensor chips by amine coupling techniques. Their immobilized amount was adjusted to around 200 RU. BSA-immobilized chips were placed in flow cells 1 and 3, while biotin-BSA-immobilized chips were placed in flow cells 2 and 4. Tamavidin 2 was loaded into flow cells 1 and 2, while streptavidin was loaded into flow cells 3 and 4, each being loaded at a flow rate of 20 μl/min for 2 minutes in running buffer [10 mM HEPES pH 7.4, 150 mM NaCl, 3 mM EDTA, 0.005% Surfactant 20 (Biacore Inc.)]. The samples were then monitored for their dissociation over 60 minutes. […] The dissociation constant (Kd) was determined from kd/ka.
It should be noted that when the regeneration step was skipped, Rmax (the maximum binding amount of an analyte) was reduced ever time the measurement at each concentration was made. For this reason, Rmax was calculated by local fitting for each concentration during analysis. […]

[3] = Activity measurement by means of fluorescent biotin (method of Kada et al.); type: binding; settings: room temperature, 10 minutes
Procedure: By means of fluorescent biotin, tamavidin 2 was measured for its biotin-binding activity according to the method of Kada et al. (Biochim. Biophys. Acta., 1427: 44-48, (1999)). Solutions were prepared to contain the purified TM2 at stepwise concentrations from 0 pmol to 486 pmol in 200 μl assay buffer (50 mM NaH2PO4, 100 mM NaCl, 1 mM EDTA (pH 7.5)). These solutions were each mixed with 50 μL (1 nmol) of a 20 pmol/μL fluorescent biotin solution (biotin-4-fluorescein; Molecular Probe) and allowed to stand at room temperature for 10 minutes, followed by measuring the fluorescence intensity with a Las-3000 system (FUJIFILM). As a result, 0.274 nmol of TM2 was bound to nmol of fluorescent biotin. Namely, 3.6 mol of fluorescent biotin was bound to 1 mol of tamavidin. […] In the case of streptavidin, 3.4 mol of fluorescent biotin was bound per mol of streptavidin.

[4] = Heat resistance: protein stability (heating, SDS-PAGE band quantification); type: physicochemical; settings: heated 20 minutes, soluble protein, SDS-PAGE, no biotin
Procedure: (§1) 0.2 μg/μL TM2 and 0.2 μg/μL streptavidin were heated in 10 μL (2 μg) volumes at room temperature, 50° C., 60° C., 70° C., 80° C., 90° C. or 99° C. for 20 minutes, followed by centrifugation at 15000 rpm for 10 minutes. Each supernatant (soluble protein) was suspended in an equal volume of 2×SDS sample buffer (100 mM Tris-HCl pH 6.8, 12% 2-mercaptoethanol, 2% SDS, 20% glycerol), heated at 95° C. for 10 minutes and then analyzed by SDS-PAGE. Protein bands were detected by CBB staining. Using a Las-3000 system (FUJIFILM), a calibration curve was prepared based on quantification markers (LMW ELECTROPHORESIS CALIBRATION KIT; Pharmacia Biotech) and used to quantify the protein bands. […]
as §1, with “Purified tamavidin 1 at a concentration of 0.2” for “0.2”, “was” for “TM2 and 0.2 μg/μL streptavidin were”

[5] = Heat resistance: fluorescent biotin-binding activity of heated biotin-binding proteins; settings: for temperature which caused a 50% reduction in fluorescence intensity decrement compared to the unheated sample: free protein, heated 20 minutes; for reduction of binding activity to fluorescent biotin: 20 minutes
Procedure: Based on the property of fluorescent biotin to lose its fluorescence intensity when bound to a biotin-binding site in a biotin-binding protein, tamavidin 2 was compared with streptavidin and avidin for biotin-binding capacity under high temperature conditions.
About 0.25 μg/μL TM2 and streptavidin were heated at room temperature, 50° C., 60° C., 70° C., 80° C. or 90° C. for 20 minutes. Solutions were prepared to contain the heat-treated TM2 or streptavidin at stepwise concentrations from 0 μL to 27 μL in 150 μL assay buffer (50 mM NaH2PO4, 100 mM NaCl, 1 mM EDTA (pH 7.5)). These solutions were each mixed with 50 μL (250 pmol) of a 5 pmol/μL fluorescent biotin solution (biotin-4-fluorescein; Molecular Probe) and allowed to stand at room temperature for 20 minutes, followed by measuring the fluorescence intensity with a Las-3000 system (FUJIFILM).
Heat resistance test on the biotin-binding proteins was accomplished as follows. About 0.25 μg/μL biotin-binding protein was heated at room temperature, 50° C., 60° C., 70° C., 80° C. or 90° C. for 20 minutes. Solutions were prepared to contain the heated biotin-binding protein at stepwise concentrations from 0 μL to 12 μL in 150 μL assay buffer. These solutions were each mixed with 50 μL (100 pmol) of a 2 pmol/μL fluorescent biotin solution and allowed to stand at room temperature for 20 minutes, followed by measuring the fluorescence intensity at Ex=460 nm and Em=525 nm with an Infinite M200 (TECAN).

[6] = 1:1 binding model, biotin-BSA ligand

| Dissociation rate constant kd [2, 6] [s⁻¹] | Kd ([2]; determined from kd/ka, read-out: Dissociation constant Kd) [pM] | reduction of binding activity to fluorescent biotin ([5]; heated at 70° C.) [%] | reduction of binding activity to fluorescent biotin ([5]; heated at 80° C.) [%] | Substance | isoelectric point [1] | non-specific binding to DNA (staining intensity versus DNA concentration) (salmon sperm DNA) | Association rate constant ks [2, 6] [M⁻¹ s⁻¹] | fluorescent biotin bound per mol of protein [3] [mol] | temperature which caused a 50% reduction in protein band intensity [4] [°C] | temperature which caused a 50% reduction in fluorescence intensity decrement compared to the unheated sample [5] [°C] |
| --- | --- | --- | --- | --- | --- | --- | --- | --- | --- | --- |
| 2.52e-06 | 1.11 | 40 | 80 | Streptavidin: biotin-binding protein derived from an actinomycete strain (Streptomyces avidinii) [reference compound] | around neutral pH | not strongly affected by DNA concentration | 2.28e+06 | 3.4 | 71 | 73 |
| – | – | 10 | 70 | avidin: albumen-derived basic glycoprotein binding biotin | exceeding 10 | DNA concentration-dependent increase in its staining intensity | – | – | – | 78 |
